Reference: the NIST ThermoML archive (doi:10.1016/j.jct.2012.10.008)

Test: xn = mol fraction of the nth substance listed
Settings: 101 kPa, Liquid; for viscosity: Falling or rolling sphere viscometry; for mass density: Vibrating tube method

CCCC[NH3+].O=[N+]([O-])[O-] [n-butylammonium nitrate] + CO
Settings	mass density, 293.15 K [kg/m3]	mass density, 298.15 K [kg/m3]	mass density, 303.15 K [kg/m3]	mass density, 308.15 K [kg/m3]	mass density, 313.15 K [kg/m3]	viscosity, 293.15 K [mPa·s]	viscosity, 298.15 K [mPa·s]	viscosity, 303.15 K [mPa·s]	viscosity, 308.15 K [mPa·s]	viscosity, 313.15 K [mPa·s]
x1 = 0.0999	884.86	880.73	876.67	872.57	868.45	1.377	1.267	1.173	1.119	1.014
x1 = 0.1998	944.76	940.97	937.17	933.38	929.59	2.723	2.466	2.248	2.058	1.893
x1 = 0.3012	987.04	983.43	979.82	976.23	972.64	4.923	4.382	3.934	3.555	3.229
x1 = 0.4005	1016.59	1013.11	1009.64	1006.18	1002.74	9.129	8	7.037	6.242	5.584
x1 = 0.5015	1039.93	1036.55	1033.17	1029.82	1026.48	14.79	12.8	11.16	9.779	8.66
x1 = 0.6507	1065.48	1062.21	1058.95	1055.7	1052.47	28.64	24.08	20.59	17.77	15.5
x1 = 0.8007	1085.18	1081.98	1078.78	1075.61	1072.46	51.33	42.07	35.23	29.65	25.41
x1 = 0.9007	1096.21	1093.04	1089.88	1086.74	1083.63	77.73	64.34	53.02	44.24	37.21
x1 = 1	1104.68	1101.52	1098.38	1095.26	1092.17	111.35	89.95	73.04	60.25	50.12

CCCC[NH3+].O=[N+]([O-])[O-] [n-butylammonium nitrate] + CCCCO
Settings	mass density, 293.15 K [kg/m3]	mass density, 298.15 K [kg/m3]	mass density, 303.15 K [kg/m3]	mass density, 308.15 K [kg/m3]	mass density, 313.15 K [kg/m3]	viscosity, 293.15 K [mPa·s]	viscosity, 298.15 K [mPa·s]	viscosity, 303.15 K [mPa·s]	viscosity, 308.15 K [mPa·s]	viscosity, 313.15 K [mPa·s]
x1 = 0.1004	851.35	847.7	844.02	840.32	836.6	5.242	4.554	3.985	3.506	3.099
x1 = 0.1999	888.16	884.59	881	877.4	873.79	–	6.852	5.961	5.217	4.592
x1 = 0.2993	922.05	918.6	915.12	911.54	908.03	11.36	9.747	8.447	7.302	6.344
x1 = 0.3992	953.58	950.14	946.7	943.25	939.81	17.51	14.95	12.76	11.03	9.601
x1 = 0.4955	982.07	978.69	975.31	971.93	968.56	24.22	20.34	17.34	14.86	12.88
x1 = 0.6508	1024.4	1021.11	1017.81	1014.53	1011.26	38.67	31.95	26.79	22.66	19.51
x1 = 0.801	1061.11	1057.88	1054.67	1051.47	1048.29	60.58	49.4	40.82	34.2	28.96
x1 = 0.8998	1083.71	1080.52	1077.34	1074.19	1071.05	83.12	68.14	56.15	46.69	39.11
x1 = 1	1104.68	1101.52	1098.38	1095.26	1092.17	111.35	89.95	73.04	60.25	50.12
